Experiments:
[1] = Pharmacokinetic analysis after single oral administration; assay type: in vivo; conditions: male Sprague-Dawley rats, single oral dose 10 mg/kg, 7 h post dosing; for Kp at 7 h: rat, liver/plasma, read-out: Lever/plasma ratio
Description: Three male Sprague-Dawley rats were given a single oral dose of 10 mg/kg of the studied compounds. The compounds were administered by gavage as a solution in PEG400/2% Vitamine E Tocopherol polyethyleneglycol succinate (Vitamin E-TPGS). 7 hours after administration, the animals were sacrificed and plasma and liver samples taken. The samples were analyzed using a qualified research LC-MS/MS method to determine the concentration of the compound in the liver and the liver-to-plasma ratio at 7 h post dosing.

[2] = test system: wild type replicon of genotype 1b (con1b) in Huh7-cure cells; test: Transient replicon assay, wild type replicon of genotype 1b (Con1b); assay type: cell-based, HCV genotype 1b; conditions: Hepatitis C virus, transient wild type replicon genotype 1b, 48 h, luciferase, read-out: EC50-T Con1b
[3] = test system: NS5B chimeric replicon of clinical isolate 1a—6 in Huh7-cure cells; test: Transient replicon assay, chimeric replicon of clinical isolate 1a—6 (CI2); assay type: cell-based, HCV genotype 1a; conditions: Hepatitis C virus, 48 h, read-out: EC50-T CI2
[4] = biological target: T1, HCV NS5B polymerase (NS5BΔC21) (Hepatitis C virus genotype 1b, UniProt Q9WMX2); test: RNA-dependent RNA polymerase assay (enzyme inhibition assay); assay type: biochemical, HCV (genotype 1b consensus strain Con1)
T1 construct: NS5B (genotype 1b consensus strain Con1) lacking 21 C-terminal residues; made in house; host or cells: E. coli Rosetta 2 (DE3)
Excerpt: The coding sequence for NS5B (genotype 1b consensus strain Con1) lacking 21 C-terminal residues was amplified from plasmid pFKI389/ns3-3′ (Genbank accession no. AJ242654), plasmid pCV-H77C (Genbank accession no. AF 011751.1) and subcloned into the pET21b plasmid as described previously (Pauwels et al. J. Virol., 2007). The NS5BΔC21 expression constructs were transformed into E. coli Rosetta 2 (DE3) (Novagen, Madison, Wis.). One hundred milliliters of LB-medium supplemented with carbenicillin (50 μg/mL) and chloramphenicol (34 μg/mL) was inoculated with one colony, grown overnight, and transferred to fresh LB-medium supplemented with 3% ethanol, carbenicillin and chloramphenicol, at a ratio of 1:200. Cells were grown to an optical density at 600 nm of 0.6, after which the expression cultures were shifted to a growth temperature of 20° C. following induction with ispopropyl-1-thio-β-D-galactopyranoside and MgCl2 at a final concentration of 0.4 mM and 10 μM, respectively. After 18 h of induction, cells were harvested by centrifugation and resuspended in 20 mM Tris-HCl, pH 7.5, 300 mM NaCl, 10% glycerol, 0.1% NP40, 4 mM MgCl2, 5 mM DTT supplemented with EDTA-free Complete Protease Inhibitor (Roche, Basel, Switzerland). Cell suspensions were disrupted by sonication and incubated with 10-15 mg/L of DNase I (Roche, Basel, Switzerland) for 30 min. Cell debris was removed through ultracentrifugation at 30,000×g for 1 hour and clarified cell lysate was flash frozen and stored at −80° C. prior to purification.
Clarified cell lysate was thawed and subsequently loaded onto a 5 mL pre-packed HisTrap FF column equilibrated with 25 mM HEPES, pH 7.5, 500 mM NaCl, 10% glycerol and 5 mM DTT. Proteins were eluted with 500 mM imidazole at a flow rate of 1 mL/min. Fractions containing the protein of interest were applied onto a pre-packed 26/10 HiPrep Desalting Column equilibrated with 25 mM HEPES, pH 7.5, 250 mM NaCl, 10% glycerol and 5 mM DTT. The buffer-exchanged NS5B peak was then applied onto a 6 ml Resource S column. Protein was eluted with an increasing salt gradient and fractions collected. Protein purity was assessed on Nu-PAGE pre-cast gels (Invitrogen, Carlsbad, Calif.). Purified NS5B samples were concentrated using Centri-Prep concentrators (Millipore, Billerica, Mass., USA) and protein concentrations were determined by spectrofotometry with the Nanodrop (Nanodrop Technologies, Wilmington, Del., USA).
Measurement of HCV NS5B polymerization activity was performed by evaluating the amount of radio labeled GTP incorporated by the enzyme in a newly synthesized RNA using […] RNA template/primer. The RdRp assay was carried out in 384-well plates. 2.5 nM of purified NS5B enzyme was pre-incubated for 10 min with 150 nM 5′-biotinylated oligo(rG13) primer, 15 nM poly(rC) template, in 18 mM Tris-HCl, pH 7.5, 5 mM MgCl2, 20.5 mM KCl, 17 mM NaCl and 2.5 mM of DTT. The test compounds were the added to the preformed polymerase-template complex, and incubated at room temperature for 15 min before the addition 600 nM of GTP, and 0.13 μCi of [^3H]GTP. 30 μL reaction mixture was incubated at room temperature for 2 h before stopping the reaction by adding 30 μL of streptavidin coated SPA-beads (GE Healthcare, Uppsala, Sweden) in 0.5 M EDTA. […] IC50 values represent the concentration of compound required to decrease by 50% the amount of RNA produced which is measured by the detection of incorporated radiolabeled GTP.

[5] = test system: NS5B chimeric replicon of clinical isolate 1a_H77 in Huh7-cure cells; test: Transient replicon assay, chimeric replicon of clinical isolate 1a_H77 (CI1); assay type: cell-based, HCV genotype 1a; conditions: Hepatitis C virus, 48 h, read-out: EC50-T CI1
[6] = biological target: T2, NS5B wild-type enzyme genotype 1b (Hepatitis C virus genotype 1b, UniProt Q9WMX2); test: Enzyme binding assay (SPR, Biacore), genotype 1b
T2 construct: NS5B (genotype 1b consensus strain Con1) lacking 21 C-terminal residues; made in house; host or cells: E. coli Rosetta 2 (DE3)
Description: (§1) The compounds of formula (I) were examined for their enzymatic binding kinetics or affinity using a Surface Plasmon Resonance (SPR)-based method, i.e. Biacore. A slow dissociation of the inhibiting compound from its viral target (low koff, low Kd) is believed to potentially reduce the development of drug resistance against anti-viral drugs (Dierynck et al. 2007. Journal of Virology, vol. 81, No. 24, 13845-13851). All measurements were performed on a Biacore T100 instrument (GE Healthcare). The purified HIS6-tagged NS5BΔC21 polymerases were immobilized using non-covalent capturing to an NTA sensor chip (GE Healthcare) in immobilization buffer (20 mM MOPS pH 7.4, 500 mM NaCl, 0.005% Tween-P20, 1 mM DTT, 50 μM EDTA). Interaction studies were all performed at 25° C. Inhibitors were serially diluted in running buffer (20 mM Tris-HCl pH 7.4, 150 mM NaCl, 50 μM EDTA, 1 mM DTT, 0.005% Tween-P20) containing 5% dimethyl sulfoxide (DMSO). Single-cycle kinetics were used, in which 5 increasing concentrations of compound were injected for a period of 300 s each in 1 single cycle, and dissociation was monitored for a period of 1200 s. The sensor surface was completely regenerated in between the cycles. Data were analyzed using simultaneous nonlinear regression analysis (global fitting) adapted for single-cycle kinetics with Biacore T100 BiaEval evaluation software 2.0 (GE Healthcare). The individual rate constants kon and koff and a derived affinity constant, Kd=koff/kon, were determined by a kinetic evaluation of the sensorgrams. The kinetic models accounted for bulk and limited mass transport effects. Every analysis was performed at least in two independent experiments. The dissociation rate of a kinetic interaction can be translated into a compound residence time (dissociative half-life t1/2=ln(2)/koff) representative for the interaction time between the polymerase and its inhibitor.
(§2) The observed association rate constants (kon), dissociation rate constants (koff), derived affinity constant (Kd) and dissociative half-life (t1/2) measured for compounds of formula (I) or subgroups thereof on NS5B wild-type enzyme genotypes 1a, 1b and 4a are given in Table 2.

[7] = biological target: T3, NS5B wild-type enzyme genotype 4a (UniProt O39929); test: Enzyme binding assay (SPR, Biacore), genotype 4a; parameters: species or system HCV genotype 4a
T3 construct: fused on or other part: His6 tag
Description: as §1, §2

[8] = biological target: T4, NS5B wild-type enzyme genotype 1a (Hepatitis C virus genotype 1a, UniProt P27958); test: Enzyme binding assay (SPR, Biacore), genotype 1a; parameters: species or system HCV genotype 1a
T4 construct: The purified HIS6-tagged NS5BΔC21 polymerases were immobilized; made in house; host or cells: E. coli Rosetta 2 (DE3)
Description: as §1, §2

T4 sequence (P27958 2421-2990): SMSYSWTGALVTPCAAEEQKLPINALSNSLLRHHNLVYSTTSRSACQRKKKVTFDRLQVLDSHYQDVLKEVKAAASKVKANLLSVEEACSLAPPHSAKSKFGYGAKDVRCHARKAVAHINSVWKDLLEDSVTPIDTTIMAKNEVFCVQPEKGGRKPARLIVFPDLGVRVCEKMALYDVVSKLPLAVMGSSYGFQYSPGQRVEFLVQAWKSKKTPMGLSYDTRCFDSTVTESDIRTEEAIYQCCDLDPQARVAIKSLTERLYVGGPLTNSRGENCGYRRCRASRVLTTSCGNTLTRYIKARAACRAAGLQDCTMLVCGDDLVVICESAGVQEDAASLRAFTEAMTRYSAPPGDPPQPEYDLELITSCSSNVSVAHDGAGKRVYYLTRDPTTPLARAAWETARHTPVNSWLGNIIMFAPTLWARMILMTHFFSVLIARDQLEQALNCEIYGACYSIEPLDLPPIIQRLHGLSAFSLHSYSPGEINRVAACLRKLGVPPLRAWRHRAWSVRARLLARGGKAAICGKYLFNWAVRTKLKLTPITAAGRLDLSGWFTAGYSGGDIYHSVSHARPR

For `CN1CCOCCN(C)S(=O)(=O)NC(=O)c2ccc3c(C4CCCCC4)c(n(C)c3c2)-c2ccccc2OCC1=O` [Compound 10, 25-cyclohexyl-4,10,19-trimethyl-5,6,9,10-tetrahydro-2H,8H-14,18:17,20-di(metheno)-1,7,11,4,10,12,19-benzodioxathiatetraazacyclodocosine-3,13 (4H,12H,19H)-dione 11,11-dioxide], the “Concentration Liver” value [1] was 1717 ng/g, the Kp at 7 h [1] was 64 and the EC50 [2] was 75 nM. The EC50 [3] was 88 nM, the IC50 [4] was 161 nM and the EC50 [5] was 121 nM.
`CN1CCCCNC(=O)COc2ccccc2-c2c(C3CCCCC3)c3ccc(cc3n2C)C(=O)NS1(=O)=O` [Compound 32, 24-cyclohexyl-9,18-dimethyl-4,5,6,7,8,9-hexahydro-13,17:16,19-di(metheno)-1,10,4,9,11,18-benzoxathiatetraazacyclohenicosine-3,12(2H,11H,18H)-dione 10,10-dioxide] showed an EC50 [2] of 3610 nM, an EC50 [3] of 2950 nM and an IC50 [4] of 1820 nM. The Kd [6] was 1200 nM, the koff ([6]; genotype 1b, SPR, 25° C.) was 0.015 s⁻¹ and the kon ([6]; genotype 1b, SPR, 25° C.) was 1.3E+04 1/MS. The “t1/2 (dissociative half-life)” value ([6]; genotype 1b, t1/2=ln(2)/koff) was 0.783 min, the Kd ([7]; Kd=koff/kon) was 450 nM and the koff ([7]; SPR, 25° C.) was 0.0087 s⁻¹. The kon ([7]; SPR, 25° C.) was 1.9E+04 1/MS, the “t1/2 (dissociative half-life)” value ([7]; t1/2=ln(2)/koff) was 1.33 min and the EC50 [5] was 1600 nM. The Kd [8] was 3300 nM, the koff [8] was 0.0089 s⁻¹ and the kon ([8]; genotype 1a, SPR, 25° C.) was 3.0E+03 1/MS. For the same molecule, the “t1/2 (dissociative half-life)” value ([8]; genotype 1a, t1/2=ln(2)/koff) was 1.3 min.
With `CN1CCCCN(C)S(=O)(=O)NC(=O)c2ccc3c(C4CCCCC4)c(n(C)c3c2)-c2ccccc2OCC1=O` [Compound 15, 24-cyclohexyl-4,9,18-trimethyl-4,5,6,7,8,9-hexahydro-13,17:16,19-di(metheno)-1,10,4,9,11,18-benzoxathiatetraazacyclohenicosine-3,12(2H,11H,18H)-dione 10,10-dioxide] the “Concentration Liver” value [1] was 1524 ng/g, the Kp at 7 h [1] was 99 and the EC50 [2] was 169 nM. It also gave an EC50 [3] of 99 nM, an IC50 [4] of 124 nM and an EC50 [5] of 102 nM.

Source: patent publication US8357687B2, “Macrocyclic indole derivatives useful as hepatitis C virus inhibitors” (priority 2008, dated 2013)
